Assay results published in ChEMBL document CHEMBL3217628, “Benzisothiazolones arrest the cell cycle at the G2/M phase and induce apoptosis in HeLa cells” (Medchemcomm, 2013).
Activity calls are given as the source filed them. The calls are words filed in the database; no cut-off is given here.

How the values were obtained:
HeLa [1] = test: Cytotoxicity against human HeLa cells after 72 hrs by MTT assay; type: functional, cell-based
SiHa = test: Cytotoxicity against human SiHa cells after 72 hrs by MTT assay; type: functional, cell-based
SW480 = test: Cytotoxicity against human SW480 cells after 72 hrs by MTT assay; type: functional, cell-based; conditions: SW480, 72 h
[2] = Solubility of the compound in DMSO; type: physicochemical
HeLa [3] = test: Cell cycle arrest in human HeLa cells assessed as accumulation at G2/M phase at 50 uM after 48 hrs using propidium iodide staining by flow cytometry (reference value: 14.3%); type: functional
HeLa [4] = test: Cell cycle arrest in human HeLa cells assessed as apoptotic cells at 50 uM after 48 hrs using propidium iodide staining by flow cytometry (reference value: 7.3%); type: functional
HeLa [5] = test: Induction of apoptosis in human HeLa cells assessed as disruption of mitochondrial membrane potential at 50 uM after 72 hrs using JC1 dye by fluorescence microscope analysis; type: functional, cell-based
HeLa [6] = test: Induction of apoptosis in human HeLa cells assessed as formation of DNA fragmentation at 50 uM after 72 hrs using ethidium bromide staining by 2% agarose gel electrophoresis assay; type: functional, cell-based
HeLa [7] = test: Induction of apoptosis in human HeLa cells assessed as cleaved caspase-3 level at […] after 48 hrs by Western blot analysis; type: functional, cell-based
HeLa [8] = test: Induction of apoptosis in human HeLa cells assessed as disruption of mitochondrial membrane potential at […] after 72 hrs using JC1 dye by fluorescence microscope analysis; type: functional, cell-based

SMILES	IC50 (HeLa [1]) [µM]	IC50 (SiHa) [µM]	IC50 (SW480) [µM]	solubility [2]	other results
C[C@@H](c1ccccc1)n1sc2ccccc2c1=O	30.9	35.9	41.8	–	–
Cc1ccc(-n2sc3ccccc3c2=O)cc1	–	–	–	soluble	–
O=c1c2ccccc2sn1C1CCCCC1	24.8	48.3	48.8	–	Activity (HeLa [3]): 26.6%; Activity (HeLa [4]): 23.4%; Activity (HeLa [5]): Active; Activity (HeLa [6]): Active
CC(=O)O[C@H]1C(=O)[C@@]2(C)[C@H]([C@H](OC(=O)c3ccccc3)[C@]3(O)C[C@H](OC(=O)[C@H](O)[C@@H](NC(=O)c4ccccc4)c4ccccc4)C(C)=C1C3(C)C)[C@]1(OC(C)=O)CO[C@@H]1C[C@@H]2O	–	–	–	–	Activity (HeLa [7]): Active; Activity (HeLa [8]): Active
COc1ccccc1-n1sc2ccccc2c1=O	–	–	–	soluble	–
O=c1c2ccccc2sn1-c1ccccc1	–	–	–	soluble	–
COc1ccc(-n2sc3ccccc3c2=O)cc1	–	–	–	soluble	–
O=c1c2ccccc2sn1-c1ccccc1[N+](=O)[O-]	–	–	–	soluble	–
C[C@H](c1ccccc1)n1sc2ccccc2c1=O	43.7	32.3	43.1	–	–
CC(C)Cn1sc2ccccc2c1=O	31.8	38.1	47.8	–	–
O=c1c2ccccc2sn1Cc1ccc2c(c1)OCO2	37.3	29.3	46.3	–	–
O=C(c1ccccc1)c1cc(Cl)ccc1-n1sc2ccccc2c1=O	–	–	–	soluble	–
